# From PubChem BioAssay AID1963447 (Molecular Pharmacology Branch, DTP, NCI, 2024)
# Tested on: 885512-296-R-J2-PDC complex spheroid growth, % test/control
# Assay: Anticancer human tumor 885512-296-R-J2-PDC patient-derived breast carcinoma cell line growth inhibition [Asc]
# Conditions: for IC50: curve of first compound; for viability, T/C: stronger effect = lower value
# In short: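 Stromal components (HUVEC and hMSC) are co-assembled with the cancer cells into multicellular spheroids. Drugs are then added singly or paired, at concentrations falling by half-log increments from a clinically achievable maximum, capped at 10 microM without known Cmax.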
# [1] = second compound 0.1 µM, first compound 0.00949 µM
# [2] = second compound 0.1 µM, first compound 0.03 µM
# [3] = second compound 0.1 µM, first compound 0.0949 µM
# [4] = second compound 0.1 µM, first compound 0.3 µM
# [5] = second compound 0.316 µM, first compound 0.00949 µM
# [6] = second compound 0.316 µM, first compound 0.03 µM
# [7] = second compound 0.316 µM, first compound 0.0949 µM
# [8] = second compound 0.316 µM, first compound 0.3 µM
# [9] = second compound 1 µM, first compound 0.00949 µM
# [10] = second compound 1 µM, first compound 0.03 µM
# [11] = second compound 1 µM, first compound 0.0949 µM
# [12] = second compound 1 µM, first compound 0.3 µM
# 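Further: spheroids exposed to compounds for seven days.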
# 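Wherever viability, T/C is given: 100% = DMSO vehicle control wells.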
smiles,measurement,setting,value
NC(=O)C(=Cn1cnc(-c2cc(C(F)(F)F)cc(C(F)(F)F)c2)n1)c1cncnc1 + CNC(C)C(=O)NC1CN(S(=O)(=O)c2cccc(S(=O)(=O)N3CCC4CCC(C(=O)NC(c5ccccc5)c5ccccc5)N4C(=O)C(NC(=O)C(C)NC)C3)c2)CCC2CCC(C(=O)NC(c3ccccc3)c3ccccc3)N2C1=O,IC50,second compound 0.01 µM,48.8 nM
same,IC50,second compound 0.0316 µM,48.7 nM
same,IC50,second compound 0.1 µM,49 nM
same,IC50,second compound 0.316 µM,49.9 nM
same,IC50,second compound 1 µM,48.9 nM
same,"viability, T/C","second compound 0.01 µM, first compound 0.000949 µM",96.4%
same,"viability, T/C","second compound 0.01 µM, first compound 0.003 µM",95.6%
same,"viability, T/C","second compound 0.01 µM, first compound 0.00949 µM",92.8%
same,"viability, T/C","second compound 0.01 µM, first compound 0.03 µM",80.9%
same,"viability, T/C","second compound 0.01 µM, first compound 0.0949 µM",7.83%
same,"viability, T/C","second compound 0.01 µM, first compound 0.3 µM",1.03%
same,"viability, T/C","second compound 0.0316 µM, first compound 0.000949 µM",96.1%
same,"viability, T/C","second compound 0.0316 µM, first compound 0.003 µM",99%
same,"viability, T/C","second compound 0.0316 µM, first compound 0.00949 µM",102%
same,"viability, T/C","second compound 0.0316 µM, first compound 0.03 µM",80.4%
same,"viability, T/C","second compound 0.0316 µM, first compound 0.0949 µM",8.3%
same,"viability, T/C","second compound 0.0316 µM, first compound 0.3 µM",0.82%
same,"viability, T/C","second compound 0.1 µM, first compound 0.000949 µM",102%
same,"viability, T/C","second compound 0.1 µM, first compound 0.003 µM",103%
same,"viability, T/C",[1],110%
same,"viability, T/C",[2],81.8%
same,"viability, T/C",[3],7.31%
same,"viability, T/C",[4],1.06%
same,"viability, T/C","second compound 0.316 µM, first compound 0.000949 µM",106%
same,"viability, T/C","second compound 0.316 µM, first compound 0.003 µM",110%
same,"viability, T/C",[5],107%
same,"viability, T/C",[6],83.7%
same,"viability, T/C",[7],7.6%
same,"viability, T/C",[8],0.59%
same,"viability, T/C","second compound 1 µM, first compound 0.000949 µM",101%
same,"viability, T/C","second compound 1 µM, first compound 0.003 µM",108%
same,"viability, T/C",[9],110%
same,"viability, T/C",[10],81.8%
same,"viability, T/C",[11],6.87%
same,"viability, T/C",[12],0.55%
CCN1C(C(=O)NC23CCC(C(=O)O)(CC2)CC3)C(c2cccc(Cl)c2F)C2(C(=O)Nc3cc(Cl)ccc32)C12CCCCC2 (stereo not given) + Cc1c(S(C)(=O)=O)c(-c2cc(F)cc(N3CCN(c4ccc(NS(=O)(=O)c5ccc(NC(CCN6CCC(C(=O)OCCCP(=O)(O)O)CC6)CSc6ccccc6)c(S(=O)(=O)C(F)(F)F)c5)cc4)CC3)c2)c(-c2ccc(Cl)cc2)n1C(C)C,IC50,second compound 0.1 µM,2460 nM
same,IC50,second compound 0.316 µM,1820 nM
same,IC50,second compound 1 µM,2370 nM
same,IC50,second compound 3.16 µM,> 3000 nM
same,IC50,second compound 10 µM,> 3000 nM
same,"viability, T/C",[1],90.8%
same,"viability, T/C",[2],96.3%
same,"viability, T/C",[3],99.4%
same,"viability, T/C",[4],72.8%
same,"viability, T/C","second compound 0.1 µM, first compound 0.949 µM",73.8%
same,"viability, T/C","second compound 0.1 µM, first compound 3 µM",45.1%
same,"viability, T/C",[5],86.7%
same,"viability, T/C",[6],101%
same,"viability, T/C",[7],99.6%
same,"viability, T/C",[8],80.8%
same,"viability, T/C","second compound 0.316 µM, first compound 0.949 µM",64.4%
same,"viability, T/C","second compound 0.316 µM, first compound 3 µM",39.8%
same,"viability, T/C",[9],103%
same,"viability, T/C",[10],79.3%
same,"viability, T/C",[11],85%
same,"viability, T/C",[12],71.9%
same,"viability, T/C","second compound 1 µM, first compound 0.949 µM",67.1%
same,"viability, T/C","second compound 1 µM, first compound 3 µM",42%
same,"viability, T/C","second compound 3.16 µM, first compound 0.00949 µM",109%
same,"viability, T/C","second compound 3.16 µM, first compound 0.03 µM",100%
same,"viability, T/C","second compound 3.16 µM, first compound 0.0949 µM",98.6%
same,"viability, T/C","second compound 3.16 µM, first compound 0.3 µM",95.4%
same,"viability, T/C","second compound 3.16 µM, first compound 0.949 µM",78%
same,"viability, T/C","second compound 3.16 µM, first compound 3 µM",52.4%
same,"viability, T/C","second compound 10 µM, first compound 0.00949 µM",129%
same,"viability, T/C","second compound 10 µM, first compound 0.03 µM",101%
same,"viability, T/C","second compound 10 µM, first compound 0.0949 µM",119%
same,"viability, T/C","second compound 10 µM, first compound 0.3 µM",124%
same,"viability, T/C","second compound 10 µM, first compound 0.949 µM",112%
same,"viability, T/C","second compound 10 µM, first compound 3 µM",79.6%
